According to patent US20210299268A1, “ANTIBODY-ALK5 INHIBITOR CONJUGATES AND THEIR USES” (Synthis Therapeutics, Inc., priority 2018, published 2021):
pIC50: −log10 of the molar value. Read-outs that look alike come from different tables or passages of the source.

Experiments:
[1] = tested on: primary mouse CD4+ T cells; test: MTS proliferation assay; type: cell-based
Procedure: Compounds A-D were tested to determine whether they could inhibit TGF-β signaling in primary mouse CD4^+ T cells.
Primary mouse CD4^+ T cells were isolated from the spleens of C57/B6 mice using the RoboSep™ cell isolation system (Stemcell Technologies). 0.5 μg/ml of hamster anti-mouse CD3e antibody (145-2C11; eBioscience) was coated onto a 96 well flat bottom plate overnight. 1×10^5 purified CD4^+ T cells were incubated with 1 μg/ml soluble hamster anti-mouse CD28 antibody (37.51, BD Biosciences), 1 nM TGF-β1 and 8-fold serial dilutions of Compounds A-D. After 72 hours, cell proliferation was measured using an MTS assay (Promega) in accordance with the manufacturer's instructions.

[2] = tested on: TGF-β-induced luciferase activity in HEK293T cells; test: TGF-β-induced SMAD luciferase reporter assay in HEK293T cells; type: cell-based, human; conditions: HEK-293T
Procedure: Compounds A-D were tested to determine whether they could inhibit TGF-β-induced luciferase activity in HEK293T cells in vitro.
30,000 HEK293T cells were seeded in a 96 well white flat bottom plate overnight. The next day 100 ng of a SMAD luciferase reporter plasmid per well was transfected into the cells using lipofectamine for 24 hours. The next day cells were treated with Compounds A-D and 100 pM TGFβ for 24 hours. Luciferase activity was measured using the Dual-Glo® luciferase assay kit (Promega). The assay was run twice for Compounds A, B, and D, and three times for Compound C.

ALK5 = target: T1, ALK5 (Homo sapiens, UniProt P36897); test: recombinant kinase assays; type: biochemical
T1 sequence (P36897 34-503): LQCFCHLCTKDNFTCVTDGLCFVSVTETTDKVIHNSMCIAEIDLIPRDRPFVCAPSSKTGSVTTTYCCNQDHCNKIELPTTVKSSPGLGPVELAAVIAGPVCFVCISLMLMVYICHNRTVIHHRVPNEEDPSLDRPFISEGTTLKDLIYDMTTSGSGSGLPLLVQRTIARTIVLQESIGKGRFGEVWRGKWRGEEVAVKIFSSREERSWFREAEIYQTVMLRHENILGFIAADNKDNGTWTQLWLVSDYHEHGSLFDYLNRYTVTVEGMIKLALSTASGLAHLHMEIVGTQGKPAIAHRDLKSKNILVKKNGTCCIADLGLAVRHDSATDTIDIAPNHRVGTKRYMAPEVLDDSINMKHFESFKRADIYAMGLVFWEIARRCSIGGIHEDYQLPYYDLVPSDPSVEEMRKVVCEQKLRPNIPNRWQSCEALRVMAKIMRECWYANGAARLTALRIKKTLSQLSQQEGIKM
From the text: Compound N was compared to Compound C in a number of in vitro assays.

[3] = Kinase = 1.5 nM, read-out: IC50 (nM) (Kinase = 1.5 nM)
[4] = Kinase = 25 nM, read-out: IC50 (nM) (Kinase = 25 nM)
[5] = Morrison equat/ 5 uM ATP, read-out: Ki (nM) (Morrison equat/ 5 uM ATP)
[6] = Steady state equation, read-out: Ki (nM) (Steady state equation)

| IC50 (ALK5; [3]) [nM] | IC50 (ALK5; [4]) [nM] | Ki (ALK5; [5]) [nM] | Ki (ALK5; [6]) [nM] | SMILES | effect on TGFβ-mediated inhibition of T cell proliferation ([1]; 1 nM TGF-β1, 72 hours) | Experiment 1 IC50 (nM) ([1]; 1 nM TGF-β1, 72 hours) | also measured |
| --- | --- | --- | --- | --- | --- | --- | --- |
|  |  |  |  | Cc1cccc(-c2nc(N)sc2-c2ccc3ncccc3n2)n1 [Compound A, 4-(6-methylpyridin-2-yl)-5-(1,5-naphthyridin-2-yl)thiazol-2-amine] | did not show consistent effects | Value not obtained |  |
|  |  |  |  | CNCCOc1ccc(-c2cc(-c3c[nH]nc3-c3ccccn3)ccn2)cc1 [Compound B, N-methyl-2-(4-(4-(3-(pyridin-2-yl)-1H-pyrazol-4-yl)pyridin-2-yl)phenoxy)ethan-1-amine] | reversed TGFβ-mediated inhibition of T cell proliferation |  |  |
| 1.8 | 10 | 0.11 | 2.25 | CNCCOc1ccc(-c2cc(-c3c[nH]nc3-c3cccc(C)n3)ccn2)cc1 [Compound C, N-methyl-2-(4-(4-(3-(6-methylpyridin-2-yl)-1H-pyrazol-4-yl)pyridin-2-yl)phenoxy)ethan-1-amine] | reversed TGFβ-mediated inhibition of T cell proliferation |  | pIC50 ([2]; summary value, human HEK cells, read-out: HEK Luciferase Assay): 7.93; pIC50 ([2]; Homo sapiens, Experiment 1, 100 pM TGFβ, 24 hours, read-out: Experiment 1 IC50): 8.00; pIC50 ([1]; CD4+ T, summary value, mouse T cells, read-out: Mouse T cell proliferation assay): 7.59; fold more potent than Compound N in the recombinant assays (ALK5): 10 fold |
|  |  |  |  | CCNC(=O)c1ccc2c(c1)NC(=O)/C2=C(\Nc1ccc(N(CCNC)S(C)(=O)=O)cc1)c1ccccc1 [Compound D, (Z)-N-ethyl-3-(((4-(N-(2-(methylamino)ethyl)methylsulfonamido)phenyl)amino)(phenyl)methylene)-2-oxoindoline-6-carboxamide] | not obtained | Value not obtained | Experiment 2 IC50 (nM) ([1]; Experiment 2, 1 nM TGF-β1, 72 hours): Value not obtained |
| 12 | 18 | 2.1 | 18.4 | CCc1cc(-c2ccc3ncnc(N)c3c2)n(-c2cccc(C)n2)n1 [Compound N] |  |  |  |
